# Assay results taken from US20030181507A1, “Use of 3-substituted oxindole derivatives as kcnq potassium channel modulators” (priority 2000, published 2003).
# Assays:
# BK channels = BK channels (Homo sapiens, UniProt Q12791); settings: background statement; cited from earlier work
# KCNQ channels = settings: background statement; cited from earlier work
# KCNQ4 [1] = molecular target: T1, KCNQ4 (Homo sapiens, UniProt P56696); test: Whole-cell voltage clamp of KCNQ4 stably expressed in HEK-293 cells; type: cell-based
# T1 construct: expressed in transfected cells; host or cells: HEK-293
# Method: (§1) KCNQ4 and KCNQ5 was sub-cloned into the mammalian expression vector pNS1n (NeuroSearch), a custom-designed derivative of pcDNA3Neo (InVitrogen). HEK-293 cells (American Type Culture Collection) were grown in DMEM (Life Technologies) supplemented with 10% FCS (Life Technologies) at 37° C. in 5% CO2.
# (§2) One day prior to transfection, 10^6 cells were plated in a cell culture T25 flask (Nunc). Cells were transfected with 2.5 μg of the plasmid pNS1n_KCNQ4 or with 2.5 μg of the plasmid pNS1n_KCNQ5 using Lipofectamine (Life Technologies) according to the manufacturer's instructions. Cells transfected with pNS1n_KCNQ4 or pNS1n_KCNQ5 were selected in media supplemented with 0.5 mg/ml geneticin (G418; Life Technologies).
# Single clones were picked and propagated in selection media for five passages after which they were considered stable. Following the cells were cultured in regular medium without selection agent. […]
# (§3) Whole-cell currents were recorded using a HEKA EPC-9 amplifier and borosilicate glass micropipettes with tip resistances of 1.5-3 MΩ. […]
# The currents were measured in voltage mode using the whole-cell configuration of the patch clamp technique. […]
# The experimental conditions was as described above, but in this experiment the depolarising potential ranged from −120 mV to +40 mV before a step back to −120 mV where brief inward tail currents were recorded. […]
# KCNQ4 [2] = molecular target: T1, KCNQ4; test: Membrane potential in current clamp mode, KCNQ4 expressing cell; type: cell-based; settings: FIG. 3; for membrane potential after addition of compound: 10 μM in bath solution, whole cell, initial resting potential around −60 mV, sequential additions to same cell
# Method: as §1, §2
# (§4) Single clones were picked and propagated in selection media for five passages after which they were considered stable. Following the cells were cultured in regular medium without selection agent.
# Expression of functional KCNQ4 channels or KCNQ5 channels was verified by patch-clamp measurements.
# Transfected cells were cultured on glass cover slips (Ø=3 mm), which were transferred to a small recording chamber. The chamber was perfused with extracellular solutions at a rate of 1 ml/min giving rise to full exchange of the chamber volume (15 μl) each second.
# Whole-cell currents were recorded using a HEKA EPC-9 amplifier and borosilicate glass micropipettes with tip resistances of 1.5-3 MΩ. Series resistances were below 5 MΩ, mostly stayed constant during the experiment and were compensated by 70%. The currents were not leak-subtracted.
# All experiments were performed at room temperature (21-25° C.). Igor software (WaveMetrics, Lake Oswego, Oreg.) was used for the analysis.
# The bath solution consisted of 144 mM NaCl, 4 mM KCl, 2 mM CaCl2, 1 mM MgCl2 and 10 mM HEPES (pH adjusted to 7.4). The pipette solution consisted of 144 mM KCl, 5.4 mM CaCl2, 1.8 mM MgCl2, 4 mM NaATP, 0.4 mM GTP, 10 mM EGTA and 10 mM HEPES (pH adjusted to 7.2).
# The membrane potential was measured in current clamp mode using the whole cell configuration of the patch clamp technique. A resting membrane potential of around −60 mV was initially recorded from this cell and the addition of 10 μM Compound 1 to the bath solution induced a hyper-polarisation of the membrane potential to −83 mV.
# After washout of Compound 1, the membrane potential returned to −69 mV, and subsequent addition of 10 μM Retigabine, a KCNQ activator, induced a faster but smaller hyperpolarisation to a membrane potential of −76 mV.
# The compounds were present in the bath solution during the times indicated by the bars.
# KCNQ5 = molecular target: T2, KCNQ5 (Homo sapiens, UniProt Q9NR82); test: Whole-cell voltage clamp of KCNQ5 stably expressed in HEK-293 cells; type: cell-based; settings: 10 μM, holding −90 mV, step to −30 mV
# T2 construct: expressed in transfected cells; host or cells: HEK-293
# Method: as §1, §2, §4
# Expression of functional KCNQ4 channels or KCNQ5 channels was verified by patch-clamp measurements. […]
# as §3
# The currents were measured from a cell patch clamped in the whole-cell voltage clamp configuration. […]
# The currents recorded in the absence (control) and in the presence of 10 μM of the reference M current blocker XE-991 is shown in the panel to the left.
# Chain of BK channels (Q12791 whole entry): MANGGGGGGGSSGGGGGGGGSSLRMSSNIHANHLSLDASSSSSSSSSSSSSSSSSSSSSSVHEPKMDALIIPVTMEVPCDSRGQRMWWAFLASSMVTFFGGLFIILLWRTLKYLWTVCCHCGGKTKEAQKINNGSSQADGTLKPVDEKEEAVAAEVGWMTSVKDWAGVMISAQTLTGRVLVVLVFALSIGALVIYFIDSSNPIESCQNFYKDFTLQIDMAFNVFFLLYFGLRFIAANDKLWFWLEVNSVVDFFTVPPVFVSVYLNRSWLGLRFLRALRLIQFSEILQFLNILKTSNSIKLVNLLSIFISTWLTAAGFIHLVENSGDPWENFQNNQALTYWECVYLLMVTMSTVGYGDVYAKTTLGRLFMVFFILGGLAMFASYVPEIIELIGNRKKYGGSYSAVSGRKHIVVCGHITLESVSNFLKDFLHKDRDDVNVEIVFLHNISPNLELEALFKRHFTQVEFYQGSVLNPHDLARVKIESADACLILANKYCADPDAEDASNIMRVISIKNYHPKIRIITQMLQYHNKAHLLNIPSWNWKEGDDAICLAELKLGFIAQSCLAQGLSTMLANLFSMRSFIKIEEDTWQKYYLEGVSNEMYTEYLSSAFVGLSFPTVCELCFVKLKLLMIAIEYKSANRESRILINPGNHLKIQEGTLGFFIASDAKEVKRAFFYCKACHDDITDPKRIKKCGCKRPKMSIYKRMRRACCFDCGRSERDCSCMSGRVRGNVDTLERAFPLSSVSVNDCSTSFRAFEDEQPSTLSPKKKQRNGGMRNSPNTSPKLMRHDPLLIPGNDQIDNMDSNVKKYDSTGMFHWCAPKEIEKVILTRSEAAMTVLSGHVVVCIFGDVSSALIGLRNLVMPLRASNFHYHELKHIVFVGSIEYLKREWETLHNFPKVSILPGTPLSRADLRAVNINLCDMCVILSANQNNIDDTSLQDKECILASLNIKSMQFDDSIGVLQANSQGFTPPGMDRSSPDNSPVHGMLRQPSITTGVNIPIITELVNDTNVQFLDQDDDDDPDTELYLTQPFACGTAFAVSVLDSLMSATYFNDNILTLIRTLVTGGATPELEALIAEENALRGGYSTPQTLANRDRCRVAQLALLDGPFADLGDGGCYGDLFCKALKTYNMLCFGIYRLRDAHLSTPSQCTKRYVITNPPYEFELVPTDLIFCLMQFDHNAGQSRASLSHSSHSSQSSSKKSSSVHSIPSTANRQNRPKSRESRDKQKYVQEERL
"activation of KCNQ4 currents (KCNQ4 [1]; 0.1, 0.3, 1, 3 and 10 μM, holding −90 mV, step to −40 mV, HEK-293 cells, FIG. 1)",membrane potential after addition of compound (KCNQ4 [2]) [mV],membrane potential after washout of compound (KCNQ4 [2]; after washout of 10 μM compound) [mV],"effect on KCNQ5 currents (KCNQ5; after washout of XE-991, FIG. 4)",reversibility of inhibition of KCNQ5 currents (KCNQ5; FIG. 4),Structure (SMILES),effect on BK channels (BK channels),effect on KCNQ channels (KCNQ channels),"changes in IV relation and activation curve (KCNQ4 [1]; 3 μM, depolarising potential −120 mV to +40 mV, FIG. 2)",return of membrane potential upon washout (KCNQ4 [2]; after 10 μM compound)
–,–,–,–,–,O=C1N(c2ccccc2)c2ccccc2C1(Cc1ccncc1)Cc1ccncc1 [Linopiridine],no effect,potent KCNQ inhibiting compounds,–,–
dose-dependent activation,−83,−69,activation,–,"COc1ccc(Cl)cc1C1(F)C(=O)Nc2cc(C(F)(F)F)ccc21 (racemic) [Compound 1, (±)-3-(5-chloro-2-methoxyphenyl)-1,3-dihydro-3-fluoro-6-(trifluoromethyl)-2H-indol-2-one]",–,–,changes in IV relation and activation curve,–
–,−12,–,–,not fully reversible,O=C1c2ccccc2C(Cc2ccncc2)(Cc2ccncc2)c2ccccc21 [XE-991],no effect,potent KCNQ inhibiting compounds,–,returned very slowly towards the control level
